Some test systems named below: SK-MEL-28 melanoma; MOLT-4 leukemia; UO-31 renal; HS 578T breast; SK-MEL-5 melanoma; SNB-19 CNS; SK-MEL-2 melanoma; NCI-H460 lung; LOX IMVI melanoma; HCT-15 colon.
Assay in all cases: growth of human tumour cells (NCI), 48 h

Where “and” joins values, the source holds several entries; their conditions need not be identical. Identical values can stand only once.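 A five-concentration, 48-hour dose response in 96-well plates underlies each endpoint, interpolated linearly between surrounding concentrations. Abbreviation: GI50, concentration required for 50% inhibition of growth. TGI: total growth inhibition.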 Where only a bound is given, the exact number is not on record here.

With `CC(=O)NC1(C(=O)N[C@@H](Cc2ccccc2)C(=O)NC2CCCCC2)Cc2ccc3ccccc3c2-c2c(ccc3ccccc23)C1`, the GI50 in the experiment on SK-MEL-28 melanoma is 9.72 µM and 23.1 µM; with MOLT-4 leukemia it was 1.91 µM and 4.43 µM; in the experiment with UO-31 renal, 2.8 µM and 11.8 µM; in the experiment with SK-MEL-5 melanoma, 2.9 µM and 6.71 µM; in the experiment with SNB-19 CNS, 11 µM and 28.8 µM. For the same compound, the TGI is above 100 µM in the experiment on SK-MEL-28 melanoma; 22.9 µM and 45.9 µM in the experiment with UO-31 renal; above 100 µM in the experiment with HS 578T breast; 12.1 µM and 23.7 µM with SK-MEL-5 melanoma; above 100 µM in the experiment on SNB-19 CNS; above 100 µM in the experiment on SK-MEL-2 melanoma. The TGI in the experiment with NCI-H460 lung, in the experiment with LOX IMVI melanoma and in the experiment on HCT-15 colon was above 100 µM throughout.
Consider `C=Cc1nc(C#N)c(N)o1`, for which the TGI in the experiment on SK-MEL-28 melanoma, in the experiment on MOLT-4 leukemia, in the experiment on UO-31 renal, with HS 578T breast, in the experiment with SK-MEL-5 melanoma and in the experiment on SNB-19 CNS was above 100 µM in each case. The TGI with SK-MEL-2 melanoma, in the experiment on NCI-H460 lung, in the experiment on LOX IMVI melanoma and with HCT-15 colon was above 100 µM in each case.
As to `O=C1CS[C@@](CC(c2ccc(Cl)cc2)c2ccc(Cl)cc2)(c2ccc(Cl)cc2)N1`, the TGI with SK-MEL-28 melanoma was above 100 µM; in the experiment on MOLT-4 leukemia it was 45 µM; in the experiment with UO-31 renal, above 100 µM; in the experiment on HS 578T breast, above 100 µM; in the experiment with SK-MEL-5 melanoma, 34.6 µM; in the experiment with SNB-19 CNS, above 100 µM. Further, the TGI in the experiment with SK-MEL-2 melanoma was 87.6 µM; in the experiment on NCI-H460 lung it was above 100 µM; with LOX IMVI melanoma, 65.4 µM; in the experiment on HCT-15 colon, above 100 µM.
In the case of `CNC(=S)NNc1ncnc2c1ncn2-c1ccc(C)cc1`, the TGI with SK-MEL-28 melanoma, with MOLT-4 leukemia, in the experiment with UO-31 renal, with HS 578T breast, in the experiment with SK-MEL-5 melanoma and in the experiment on SNB-19 CNS was above 100 µM each time. The TGI in the experiment on SK-MEL-2 melanoma, in the experiment on NCI-H460 lung, in the experiment on LOX IMVI melanoma and in the experiment with HCT-15 colon was above 100 µM in each case.
As for `CN(C)CCNC(=O)c1ccc(Cl)c2cc3ccccc3nc12`, the TGI is 4.03 µM in the experiment with SK-MEL-28 melanoma; 4.03 µM in the experiment on MOLT-4 leukemia; 11 µM in the experiment on UO-31 renal; 3.07 µM in the experiment with HS 578T breast; 2.44 µM with SK-MEL-5 melanoma; 14.3 µM in the experiment on SNB-19 CNS. Moreover, the TGI in the experiment with SK-MEL-2 melanoma is 4.94 µM; with NCI-H460 lung, 3.9 µM; with LOX IMVI melanoma, 1.4 µM; with HCT-15 colon, 7.15 µM.

For the origin of these results see PubChem BioAssay (NCI).
